Measured values taken from paper PMC3961306, “Comparison of the Cancer Gene Targeting and Biochemical Selectivities of All Targeted Kinase Inhibitors Approved for Clinical Use” (PLoS ONE, 2014).

Assays:
Experiment in all cases: Kinase profiling in a biochemical assay panel (mobility shift assays and ELISA), %-inhibition at 1 μM; selectivity entropy
[1] = biological target: panel of more than 300 wild-type and mutant kinases (313 kinase panel) (Homo sapiens, UniProt P22455, V550L); conditions: kinase FGFR4(V550L); compound at 1 μM
[2] = biological target: T1, panel of more than 300 wild-type and mutant kinases (313 kinase panel) (Homo sapiens, UniProt Q13470); conditions: kinase TNK1; 1 μM
T1 sequence (Q13470 1-666): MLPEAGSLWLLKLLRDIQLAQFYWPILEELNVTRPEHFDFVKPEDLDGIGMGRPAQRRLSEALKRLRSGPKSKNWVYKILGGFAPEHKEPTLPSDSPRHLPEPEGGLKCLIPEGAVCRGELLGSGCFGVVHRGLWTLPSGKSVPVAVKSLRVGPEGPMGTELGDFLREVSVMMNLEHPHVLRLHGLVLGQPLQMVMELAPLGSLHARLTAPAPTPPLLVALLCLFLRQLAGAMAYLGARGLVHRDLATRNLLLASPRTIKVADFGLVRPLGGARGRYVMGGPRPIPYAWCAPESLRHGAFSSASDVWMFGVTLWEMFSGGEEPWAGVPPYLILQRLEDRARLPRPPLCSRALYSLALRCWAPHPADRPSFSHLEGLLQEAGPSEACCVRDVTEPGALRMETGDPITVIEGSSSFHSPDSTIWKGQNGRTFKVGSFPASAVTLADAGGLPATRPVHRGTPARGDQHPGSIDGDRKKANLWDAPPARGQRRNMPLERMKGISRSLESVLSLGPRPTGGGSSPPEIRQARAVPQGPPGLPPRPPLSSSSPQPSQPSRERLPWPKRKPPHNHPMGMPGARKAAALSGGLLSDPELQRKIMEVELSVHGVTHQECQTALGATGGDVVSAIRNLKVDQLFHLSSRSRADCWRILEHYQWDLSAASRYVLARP

[3] = biological target: panel of more than 300 wild-type and mutant kinases (313 kinase panel) (Homo sapiens, UniProt P10721, V654A); conditions: kinase KIT(V654A); compound at 1 μM
[4] = biological target: panel of more than 300 wild-type and mutant kinases (313 kinase panel) (Homo sapiens, UniProt Q9H2G2); conditions: kinase SLK; 1 μM
[5] = biological target: panel of more than 300 wild-type and mutant kinases (313 kinase panel) (Homo sapiens, UniProt Q13233); conditions: kinase MAP3K1; compound at 1 μM
[6] = biological target: panel of more than 300 wild-type and mutant kinases (313 kinase panel) (Homo sapiens, UniProt Q8IY84); conditions: kinase MGC42105; 1 μM
[7] = biological target: panel of more than 300 wild-type and mutant kinases (313 kinase panel) (Homo sapiens, UniProt P07948); conditions: kinase LYNa; compound at 1 μM
[8] = biological target: T2, panel of more than 300 wild-type and mutant kinases (313 kinase panel) (Homo sapiens, UniProt Q9UF33); conditions: kinase EPHA6; compound at 1 μM
T2 sequence (Q9UF33 23-1036): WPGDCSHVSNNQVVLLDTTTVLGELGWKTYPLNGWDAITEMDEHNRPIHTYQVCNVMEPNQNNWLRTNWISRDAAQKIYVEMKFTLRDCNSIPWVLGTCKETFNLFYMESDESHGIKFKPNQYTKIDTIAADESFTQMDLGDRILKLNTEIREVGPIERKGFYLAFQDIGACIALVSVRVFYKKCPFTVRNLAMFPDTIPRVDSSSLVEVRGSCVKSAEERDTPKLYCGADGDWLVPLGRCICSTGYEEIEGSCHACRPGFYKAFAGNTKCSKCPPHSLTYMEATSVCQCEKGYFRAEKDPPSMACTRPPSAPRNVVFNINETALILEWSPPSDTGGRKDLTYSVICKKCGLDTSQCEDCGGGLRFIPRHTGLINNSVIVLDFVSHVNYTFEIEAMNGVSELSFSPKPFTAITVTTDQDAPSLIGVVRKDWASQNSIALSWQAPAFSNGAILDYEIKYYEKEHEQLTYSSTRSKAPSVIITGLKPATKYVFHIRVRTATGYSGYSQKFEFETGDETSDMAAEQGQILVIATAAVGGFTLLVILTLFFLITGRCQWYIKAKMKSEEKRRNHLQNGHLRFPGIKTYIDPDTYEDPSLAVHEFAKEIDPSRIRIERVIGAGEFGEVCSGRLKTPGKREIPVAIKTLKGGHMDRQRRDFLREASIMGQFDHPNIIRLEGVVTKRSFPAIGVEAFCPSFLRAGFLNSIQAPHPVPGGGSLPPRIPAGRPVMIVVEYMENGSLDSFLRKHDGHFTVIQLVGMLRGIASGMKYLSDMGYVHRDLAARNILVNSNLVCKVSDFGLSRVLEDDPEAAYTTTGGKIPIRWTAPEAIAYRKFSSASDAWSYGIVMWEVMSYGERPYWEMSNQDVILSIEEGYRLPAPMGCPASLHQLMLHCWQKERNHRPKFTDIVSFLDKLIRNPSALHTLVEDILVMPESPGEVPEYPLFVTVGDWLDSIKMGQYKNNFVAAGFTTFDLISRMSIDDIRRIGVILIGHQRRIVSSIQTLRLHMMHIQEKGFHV

panel of more than 300 wild-type and mutant kinases (313 kinase panel) (Homo sapiens, UniProt P10721, V654A), sequence (P10721 26-976 V654A): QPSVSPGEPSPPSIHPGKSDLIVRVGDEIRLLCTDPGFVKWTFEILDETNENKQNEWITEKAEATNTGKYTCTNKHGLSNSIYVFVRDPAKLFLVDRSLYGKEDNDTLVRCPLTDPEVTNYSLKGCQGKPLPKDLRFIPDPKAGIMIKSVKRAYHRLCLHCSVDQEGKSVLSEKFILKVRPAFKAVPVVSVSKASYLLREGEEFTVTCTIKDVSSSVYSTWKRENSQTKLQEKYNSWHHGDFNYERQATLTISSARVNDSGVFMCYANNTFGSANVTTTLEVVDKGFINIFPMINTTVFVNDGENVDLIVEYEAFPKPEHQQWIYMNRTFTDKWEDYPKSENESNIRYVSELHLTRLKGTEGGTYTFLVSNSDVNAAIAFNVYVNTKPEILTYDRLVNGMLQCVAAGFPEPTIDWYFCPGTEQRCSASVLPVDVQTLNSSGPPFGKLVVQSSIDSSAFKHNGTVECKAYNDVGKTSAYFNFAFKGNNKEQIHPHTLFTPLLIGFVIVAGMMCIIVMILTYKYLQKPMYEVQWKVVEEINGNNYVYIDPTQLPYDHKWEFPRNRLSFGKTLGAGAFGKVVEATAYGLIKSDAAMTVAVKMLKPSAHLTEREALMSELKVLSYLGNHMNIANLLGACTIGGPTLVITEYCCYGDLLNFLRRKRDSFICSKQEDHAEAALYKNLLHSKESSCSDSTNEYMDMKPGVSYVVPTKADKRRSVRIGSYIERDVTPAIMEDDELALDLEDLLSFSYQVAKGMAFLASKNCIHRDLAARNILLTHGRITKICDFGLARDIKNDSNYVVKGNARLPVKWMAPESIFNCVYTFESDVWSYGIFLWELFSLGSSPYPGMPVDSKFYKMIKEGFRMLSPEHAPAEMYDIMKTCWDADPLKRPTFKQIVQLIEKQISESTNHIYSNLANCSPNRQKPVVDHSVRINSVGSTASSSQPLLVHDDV
panel of more than 300 wild-type and mutant kinases (313 kinase panel) (Homo sapiens, UniProt Q13233), sequence (Q13233 whole entry, change not shown): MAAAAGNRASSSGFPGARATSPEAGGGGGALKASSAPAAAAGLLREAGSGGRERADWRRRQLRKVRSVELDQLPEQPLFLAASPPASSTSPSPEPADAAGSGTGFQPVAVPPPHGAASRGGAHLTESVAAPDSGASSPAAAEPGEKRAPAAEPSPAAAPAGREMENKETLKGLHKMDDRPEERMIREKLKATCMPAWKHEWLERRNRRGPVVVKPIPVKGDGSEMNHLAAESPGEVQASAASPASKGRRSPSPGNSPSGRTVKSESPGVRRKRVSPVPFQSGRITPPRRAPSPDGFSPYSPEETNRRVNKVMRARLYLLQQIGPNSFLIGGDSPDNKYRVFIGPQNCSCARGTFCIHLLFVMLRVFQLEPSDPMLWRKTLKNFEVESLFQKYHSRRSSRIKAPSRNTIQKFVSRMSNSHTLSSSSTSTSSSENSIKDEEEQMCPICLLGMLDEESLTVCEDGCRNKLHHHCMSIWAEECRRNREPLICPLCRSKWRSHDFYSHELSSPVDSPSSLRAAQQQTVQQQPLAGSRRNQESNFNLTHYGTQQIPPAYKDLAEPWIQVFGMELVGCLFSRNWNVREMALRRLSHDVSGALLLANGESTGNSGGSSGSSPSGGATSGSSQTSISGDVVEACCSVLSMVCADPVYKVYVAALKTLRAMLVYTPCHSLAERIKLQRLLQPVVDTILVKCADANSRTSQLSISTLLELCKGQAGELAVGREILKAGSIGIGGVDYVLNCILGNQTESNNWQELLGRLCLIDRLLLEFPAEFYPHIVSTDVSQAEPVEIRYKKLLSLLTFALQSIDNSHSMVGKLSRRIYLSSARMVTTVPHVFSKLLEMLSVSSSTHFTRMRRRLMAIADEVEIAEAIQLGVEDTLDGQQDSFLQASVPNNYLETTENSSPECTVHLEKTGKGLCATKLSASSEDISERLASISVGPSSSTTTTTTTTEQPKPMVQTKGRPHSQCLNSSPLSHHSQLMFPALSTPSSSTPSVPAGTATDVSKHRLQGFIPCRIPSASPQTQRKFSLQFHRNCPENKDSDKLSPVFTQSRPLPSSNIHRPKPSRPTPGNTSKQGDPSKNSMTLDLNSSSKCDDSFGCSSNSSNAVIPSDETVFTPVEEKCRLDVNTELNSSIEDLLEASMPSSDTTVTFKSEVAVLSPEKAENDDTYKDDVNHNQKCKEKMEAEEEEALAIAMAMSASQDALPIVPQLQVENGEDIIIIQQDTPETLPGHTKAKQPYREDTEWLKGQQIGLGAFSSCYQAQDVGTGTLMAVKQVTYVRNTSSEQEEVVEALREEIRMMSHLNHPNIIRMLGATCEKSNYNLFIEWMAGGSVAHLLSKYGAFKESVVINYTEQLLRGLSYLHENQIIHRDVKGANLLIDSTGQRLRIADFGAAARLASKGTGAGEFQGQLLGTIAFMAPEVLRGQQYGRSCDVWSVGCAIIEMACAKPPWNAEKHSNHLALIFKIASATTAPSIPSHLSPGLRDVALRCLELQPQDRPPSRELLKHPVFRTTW
panel of more than 300 wild-type and mutant kinases (313 kinase panel) (Homo sapiens, UniProt P22455, V550L), sequence (P22455 22-802 V550L): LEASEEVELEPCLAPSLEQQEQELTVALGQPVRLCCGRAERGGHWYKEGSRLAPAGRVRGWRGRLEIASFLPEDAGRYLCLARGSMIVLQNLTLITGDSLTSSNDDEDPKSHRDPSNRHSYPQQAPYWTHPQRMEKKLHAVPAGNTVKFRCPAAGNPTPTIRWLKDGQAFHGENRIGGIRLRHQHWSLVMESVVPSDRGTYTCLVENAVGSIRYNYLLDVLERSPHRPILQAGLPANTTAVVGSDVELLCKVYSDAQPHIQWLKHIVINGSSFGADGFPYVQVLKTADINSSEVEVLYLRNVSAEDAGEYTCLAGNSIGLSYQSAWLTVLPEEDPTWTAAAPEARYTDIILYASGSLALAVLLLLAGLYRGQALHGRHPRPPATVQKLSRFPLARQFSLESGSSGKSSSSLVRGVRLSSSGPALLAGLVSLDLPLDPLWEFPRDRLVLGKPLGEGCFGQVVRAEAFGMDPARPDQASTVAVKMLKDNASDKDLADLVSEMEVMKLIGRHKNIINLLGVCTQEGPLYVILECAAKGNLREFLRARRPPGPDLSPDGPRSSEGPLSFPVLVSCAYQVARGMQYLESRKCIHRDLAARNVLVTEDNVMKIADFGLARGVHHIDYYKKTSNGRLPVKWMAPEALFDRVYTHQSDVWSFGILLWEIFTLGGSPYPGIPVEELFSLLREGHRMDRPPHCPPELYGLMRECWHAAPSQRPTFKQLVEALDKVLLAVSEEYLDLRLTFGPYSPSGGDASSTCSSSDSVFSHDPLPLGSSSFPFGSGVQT

Row | Compound | %-inhibition of FGFR4(V550L) [1] [%] | %-inhibition of TNK1 [2] [%] | %-inhibition of KIT(V654A) [3] [%] | %-inhibition of SLK [4] [%] | %-inhibition of MAP3K1 [5] [%] | %-inhibition of MGC42105 [6] [%] | %-inhibition of LYNa [7] [%] | %-inhibition of EPHA6 [8] [%]
1 | COc1cc2nccc(Oc3ccc(NC(=O)C4(C(=O)Nc5ccc(F)cc5)CC4)cc3)c2cc1OC [cabozantinib] | -1.35 | 89 | 97 | 52 | 36 | -8 | 100 | 100
2 | N#CC[C@H](C1CCCC1)n1cc(-c2ncnc3[nH]ccc23)cn1 [ruxolitinib] | 16 | 31 | -10 | 7 | -10 | -13 | 13 | -1.06
